Each molecule was assayed against purified human Factor XIa (Homo sapiens (Human), UniProt P03951) (assay: Factor XIa assay (chromogenic substrate S-2366 hydrolysis, Ki)). Settings: measured at 37° C.
purified human Factor XIa, sequence (P03951 388-625): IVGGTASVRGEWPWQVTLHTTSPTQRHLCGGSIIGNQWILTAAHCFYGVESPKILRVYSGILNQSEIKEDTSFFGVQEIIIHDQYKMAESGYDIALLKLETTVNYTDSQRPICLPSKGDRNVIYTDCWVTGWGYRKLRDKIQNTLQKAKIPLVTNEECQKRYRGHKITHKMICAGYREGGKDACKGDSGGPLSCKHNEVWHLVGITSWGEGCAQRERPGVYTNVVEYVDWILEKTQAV
purified human Factor XIa, sequence (P03951 19-387 partner): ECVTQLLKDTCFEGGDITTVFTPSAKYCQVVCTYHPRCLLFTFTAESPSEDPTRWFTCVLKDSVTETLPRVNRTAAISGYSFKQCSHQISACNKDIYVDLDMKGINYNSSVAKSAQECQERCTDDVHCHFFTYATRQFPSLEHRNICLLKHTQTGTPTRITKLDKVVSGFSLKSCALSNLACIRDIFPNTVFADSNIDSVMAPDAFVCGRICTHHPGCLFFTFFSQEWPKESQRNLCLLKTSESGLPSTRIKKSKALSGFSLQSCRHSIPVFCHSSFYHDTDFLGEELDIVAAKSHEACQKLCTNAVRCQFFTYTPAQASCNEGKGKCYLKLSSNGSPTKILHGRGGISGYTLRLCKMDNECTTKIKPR
Assay type: biochemical
Experimental: The effectiveness of compounds of the present invention as inhibitors of the coagulation Factors XIa, VIIa, IXa, Xa, XIIa, plasma kallikrein or thrombin, can be determined using a relevant purified serine protease, respectively, and an appropriate synthetic substrate. The rate of hydrolysis of the chromogenic or fluorogenic substrate by the relevant serine protease was measured both in the absence and presence of compounds of the present invention. […] A decrease in the rate of absorbance or fluorescence change in the presence of inhibitor is indicative of enzyme inhibition. Such methods are known to one skilled in the art. The results of this assay are expressed as the inhibitory constant, Ki.
Factor XIa determinations were made in 50 mM HEPES buffer at pH 7.4 containing 145 mM NaCl, 5 mM KCl, and 0.1% PEG 8000 (polyethylene glycol; JT Baker or Fisher Scientific). Determinations were made using purified human Factor XIa at a final concentration of 25-200 pM (Haematologic Technologies) and the synthetic substrate S-2366 (pyroGlu-Pro-Arg-pNA; CHROMOGENIX® or AnaSpec) at a concentration of 0.0002-0.001 M.
The Michaelis constant, Km, for substrate hydrolysis by each protease, was determined at 25° C. or 37° C. in the absence of inhibitor. Values of Ki were determined by allowing the protease to react with the substrate in the presence of the inhibitor. […] The following relationships were used to calculate Ki values: (Vmax*S)/(Km+S); (vo−vs)/vs=I/(Ki(1+S/Km)) for a competitive inhibitor with one binding site; or vs/vo=A+(B−A)/(1+(I/IC50)^n); and Ki=IC50/(1+S/Km) for a competitive inhibitor where: […]
`COC(=O)Nc1ccc2c(c1)NC(=O)CCCCCC(C(=O)NCCc1cc(Cl)ccc1-n1cnnn1)NC2=O` (racemic) [Example 1, (±)-Methyl N-[8-({2-[5-chloro-2-(1H-1,2,3,4-tetrazol-1-yl)phenyl]ethyl}carbamoyl)-2,10-dioxo-1,2,3,4,5,6,7,8,9,10-decahydro-1,9-benzodiazacyclododecin-13-yl]carbamate] showed a Ki of 0.0179 µM.
`COC(=O)Nc1ccc2c(c1)NC(=O)CCCCCC(C(=O)NC1CCN(C(=N)N)CC1)NC2=O` (racemic) [Example 4, (±)-Methyl N-{8-[(1-carbamimidoylpiperidin-4-yl)carbamoyl]-2,10-dioxo-1,2,3,4,5,6,7,8,9,10-decahydro-1,9-benzodiazacyclododecin-13-yl}carbamate] was tested, and the Ki was 1.49 µM.
`COC(=O)Nc1ccc2c(c1)NC(=O)CCCCCC(C(=O)NCC1CCN(C(=N)N)CC1)NC2=O` (racemic) [Example 5, (±)-Methyl N-(8-{[(1-carbamimidoylpiperidin-4-yl)methyl]carbamoyl}-2,10-dioxo-1,2,3,4,5,6,7,8,9,10-decahydro-1,9-benzodiazacyclododecin-13-yl)carbamate] showed a Ki of 0.825 µM.
For `COC(=O)Nc1ccc2c(c1)NC(=O)CCCCCC(C(=O)NCCC1CCN(C(=N)N)CC1)NC2=O` (racemic) [Example 6, (±)-Methyl N-(8-{[2-(1-carbamimidoylpiperidin-4-yl)ethyl]carbamoyl}-2,10-dioxo-1,2,3,4,5,6,7,8,9,10-decahydro-1,9-benzodiazacyclododecin-13-yl)carbamate], the Ki was 0.627 µM.
`COC(=O)Nc1ccc2c(c1)NC(=O)CCCCCC(C(=O)NC1Cc3ccccc3NC1=O)NC2=O` (racemic) [Example 7, (±)-Methyl N-{2,10-dioxo-8-[(2-oxo-1,2,3,4-tetrahydroquinolin-3-yl)carbamoyl]-1,2,3,4,5,6,7,8,9,10-decahydro-1,9-benzodiazacyclododecin-13-yl}carbamate] showed a Ki of 0.708 µM.
In the case of `COC(=O)Nc1ccc2c(c1)NC(=O)CCCCCC(C(=O)NCc1csc3ccc(Cl)cc13)NC2=O` (racemic) [Example 8, (±)-Methyl N-(8-{[(5-chloro-1-benzothiophen-3-yl)methyl]carbamoyl}-2,10-dioxo-1,2,3,4,5,6,7,8,9,10-decahydro-1,9-benzodiazacyclododecin-13-yl)carbamate], the Ki is reported as 1.34 µM.
For `COC(=O)Nc1ccc2c(c1)NC(=O)CCCCCC(C(=O)N1CCCC(c3cccc(OC)c3)C1)NC2=O` (racemic) [Example 10, (±)-Methyl N-{8-[3-(3-methoxyphenyl)piperidine-1-carbonyl]-2,10-dioxo-1,2,3,4,5,6,7,8,9,10-decahydro-1,9-benzodiazacyclododecin-13-yl}carbamate], the Ki was 2.62 µM.
Work on `COC(=O)Nc1ccc2c(c1)NC(=O)CCC=CCC(C(=O)NCCc1cc(Cl)ccc1-n1cnnn1)NC2=O` (racemic) [Example 22, (E/Z)-(±)-Methyl N-[8-({2-[5-chloro-2-(1H-1,2,3,4-tetrazol-1-yl)phenyl]ethyl}carbamoyl)-2,10-dioxo-1,2,3,4,7,8,9,10-octahydro-1,9-benzodiazacyclododecin-13-yl]carbamate] yielded a Ki of under 0.005 µM.
In the case of `O=C1CCC=CCC(C(=O)NCCc2cc(Cl)ccc2-n2cnnn2)NC(=O)c2ccccc2N1` (racemic) [Example 27, (E/Z)-(±)-N-{2-[5-Chloro-2-(1H-1,2,3,4-tetrazol-1-yl)phenyl]ethyl}-2,10-dioxo-1,2,3,4,7,8,9,10-octahydro-1,9-benzodiazacyclododecine-8-carboxamide], the Ki is reported as 0.0391 µM.
`N=C(N)N1CCC(CNC(=O)C2CC=CCCC(=O)Nc3ccccc3C(=O)N2)CC1` (racemic) [Example 29, (E/Z)-(±)-N-[(1-Carbamimidoylpiperidin-4-yl)methyl]-2,10-dioxo-1,2,3,4,7,8,9,10-octahydro-1,9-benzodiazacyclododecine-8-carboxamide] gave a Ki of 1.4 µM.
In the case of `N=C(N)N1CCC(NC(=O)C2C/C=C\CCC(=O)Nc3ccccc3C(=O)N2)CC1` (racemic) [Example 30, (Z)-(±)-N-(1-Carbamimidoylpiperidin-4-yl)-2,10-dioxo-1,2,3,4,7,8,9,10-octahydro-1,9-benzodiazacyclododecine-8-carboxamide], the Ki is reported as 2.2 µM.
In the case of `N=C(N)N1CCC(NC(=O)C2C/C=C/CCC(=O)Nc3ccccc3C(=O)N2)CC1` (racemic) [Example 31, (E)-(±)-N-(1-Carbamimidoylpiperidin-4-yl)-2,10-dioxo-1,2,3,4,7,8,9,10-octahydro-1,9-benzodiazacyclododecine-8-carboxamide], the Ki is reported as 0.811 µM.
Molecule `COC(=O)Nc1ccc2c(c1)NC(=O)CCCCCC(C(=O)NCCc1cc(Cl)ccc1-n1cnnn1)NC2=O` (single isomer, unassigned) [Example 2, Methyl N-[8-({2-[5-chloro-2-(1H-1,2,3,4-tetrazol-1-yl)phenyl]ethyl}carbamoyl)-2,10-dioxo-1,2,3,4,5,6,7,8,9,10-decahydro-1,9-benzodiazacyclododecin-13-yl]carbamate] has a Ki of 2.18 µM.
`COC(=O)Nc1ccc2c(c1)NC(=O)CCCCCC(C(=O)NCCc1cc(Cl)ccc1-n1cnnn1)NC2=O` (single isomer, unassigned) [Example 3, Methyl N-[8-({2-[5-chloro-2-(1H-1,2,3,4-tetrazol-1-yl)phenyl]ethyl}carbamoyl)-2,10-dioxo-1,2,3,4,5,6,7,8,9,10-decahydro-1,9-benzodiazacyclododecin-13-yl]carbamate] was tested, and the Ki was 0.0419 µM.
`COC(=O)Nc1ccc2c(c1)NC(=O)CC/C=C\CC(C(=O)NCCc1cc(Cl)ccc1-n1cnnn1)NC2=O` (single isomer, unassigned) [Example 23, (Z)-Methyl N-[8-({2-[5-chloro-2-(1H-1,2,3,4-tetrazol-1-yl)phenyl]ethyl}carbamoyl)-2,10-dioxo-1,2,3,4,7,8,9,10-octahydro-1,9-benzodiazacyclododecin-13-yl]carbamate] gave a Ki of 0.157 µM.
For `COC(=O)Nc1ccc2c(c1)NC(=O)CC/C=C\CC(C(=O)NCCc1cc(Cl)ccc1-n1cnnn1)NC2=O` (single isomer, unassigned) [Example 24, (Z)-Methyl N-[8-({2-[5-chloro-2-(1H-1,2,3,4-tetrazol-1-yl)phenyl]ethyl}carbamoyl)-2,10-dioxo-1,2,3,4,7,8,9,10-octahydro-1,9-benzodiazacyclododecin-13-yl]carbamate], the Ki was 0.153 µM.
Work on `COC(=O)Nc1ccc2c(c1)NC(=O)CC/C=C/CC(C(=O)NCCc1cc(Cl)ccc1-n1cnnn1)NC2=O` (single isomer, unassigned) [Example 25, (E)-Methyl N-[8-({2-[5-chloro-2-(1H-1,2,3,4-tetrazol-1-yl)phenyl]ethyl}carbamoyl)-2,10-dioxo-1,2,3,4,7,8,9,10-octahydro-1,9-benzodiazacyclododecin-13-yl]carbamate] yielded a Ki of under 0.005 µM.
With `COC(=O)Nc1ccc2c(c1)NC(=O)CC/C=C/CC(C(=O)NCCc1cc(Cl)ccc1-n1cnnn1)NC2=O` (single isomer, unassigned) [Example 26, (E)-Methyl N-[8-({2-[5-chloro-2-(1H-1,2,3,4-tetrazol-1-yl)phenyl]ethyl}carbamoyl)-2,10-dioxo-1,2,3,4,7,8,9,10-octahydro-1,9-benzodiazacyclododecin-13-yl]carbamate] the Ki was 0.0641 µM.

— patent US10081623B2, “Diamide macrocycles that are FXIa inhibitors” (BRISTOL-MYERS SQUIBB COMPANY, priority 2014, dated 2018)
